From ChEMBL document CHEMBL6127034, “Design, synthesis and biological evaluation of a novel PAK1 degrader for the treatment of triple negative breast cancer” (Bioorg Med Chem, 2024)
The source made the active and inactive calls. The calls are words filed in the database; no cut-off is given here.

Tests used:
[1] = molecular target: T1, von Hippel-Lindau disease tumor suppressor/Serine/threonine-protein kinase PAK 1 (Homo sapiens, UniProt Q13153+P40337); assay: PROTAC activity at VHL/PAK1 in human MDA-MB-231 cells assessed as induction of protein degradation at 0.1 uM incubated for 48 hrs by Western blot analysis relative to control; type: cell-based
T1 sequence (Q13153 2-545 limits assumed): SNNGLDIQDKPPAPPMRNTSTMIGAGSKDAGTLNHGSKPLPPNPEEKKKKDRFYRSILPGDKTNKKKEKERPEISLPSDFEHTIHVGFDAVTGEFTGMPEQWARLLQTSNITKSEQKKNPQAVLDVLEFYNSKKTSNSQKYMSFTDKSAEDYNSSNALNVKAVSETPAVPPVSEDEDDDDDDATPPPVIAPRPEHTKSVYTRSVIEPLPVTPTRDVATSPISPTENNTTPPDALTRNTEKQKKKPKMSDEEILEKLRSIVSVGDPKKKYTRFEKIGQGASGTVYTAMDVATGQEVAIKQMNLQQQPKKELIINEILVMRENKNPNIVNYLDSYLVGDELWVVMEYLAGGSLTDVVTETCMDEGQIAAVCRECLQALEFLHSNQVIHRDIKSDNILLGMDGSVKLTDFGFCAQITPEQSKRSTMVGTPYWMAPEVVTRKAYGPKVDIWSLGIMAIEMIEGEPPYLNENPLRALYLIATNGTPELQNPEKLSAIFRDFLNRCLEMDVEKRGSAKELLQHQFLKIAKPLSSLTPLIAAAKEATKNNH
T1 sequence (P40337 whole entry partner): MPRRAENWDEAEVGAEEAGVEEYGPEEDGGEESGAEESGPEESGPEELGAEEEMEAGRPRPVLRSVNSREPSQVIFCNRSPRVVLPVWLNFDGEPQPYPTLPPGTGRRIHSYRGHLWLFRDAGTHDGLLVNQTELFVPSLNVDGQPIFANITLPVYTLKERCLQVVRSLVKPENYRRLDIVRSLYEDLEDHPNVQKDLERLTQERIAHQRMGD

[2] = molecular target: T2, Serine/threonine-protein kinase PAK 1 (Homo sapiens, UniProt Q13153); assay: Binding affinity to CM5 chip-immobilized recombinant PAK1 (unknown origin) assessed as dissociation constant by SPR analysis
T2 sequence (Q13153 whole entry): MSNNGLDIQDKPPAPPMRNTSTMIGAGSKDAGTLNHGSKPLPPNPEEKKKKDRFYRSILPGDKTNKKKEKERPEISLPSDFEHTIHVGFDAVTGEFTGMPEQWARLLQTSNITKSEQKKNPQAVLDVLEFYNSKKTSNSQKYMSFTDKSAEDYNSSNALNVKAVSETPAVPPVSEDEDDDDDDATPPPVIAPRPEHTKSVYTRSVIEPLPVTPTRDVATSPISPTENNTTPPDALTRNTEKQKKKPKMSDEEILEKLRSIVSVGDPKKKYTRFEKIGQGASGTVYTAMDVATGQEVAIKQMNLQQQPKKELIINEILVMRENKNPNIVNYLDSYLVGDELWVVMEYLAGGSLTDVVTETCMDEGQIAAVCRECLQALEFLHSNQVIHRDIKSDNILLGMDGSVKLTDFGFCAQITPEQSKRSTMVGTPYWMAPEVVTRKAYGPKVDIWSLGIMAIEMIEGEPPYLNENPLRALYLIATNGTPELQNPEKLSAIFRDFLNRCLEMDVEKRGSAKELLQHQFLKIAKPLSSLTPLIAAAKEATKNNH

[3] = molecular target: T2, Serine/threonine-protein kinase PAK 1; assay: Binding affinity to CM5 chip-immobilized recombinant PAK1 (unknown origin) by SPR analysis
[4] = molecular target: T1, von Hippel-Lindau disease tumor suppressor/Serine/threonine-protein kinase PAK 1; assay: PROTAC activity at VHL/PAK1 in human MDA-MB-231 cells assessed as induction of protein degradation incubated for 48 hrs in presence of Bortezomib by Western blot analysis; type: cell-based
[5] = molecular target: T1, von Hippel-Lindau disease tumor suppressor/Serine/threonine-protein kinase PAK 1; assay: PROTAC activity at VHL/PAK1 in human MDA-MB-231 cells assessed as induction of protein degradation incubated for 48 hrs in presence of VHL by Western blot analysis; type: cell-based
MDA-MB-231 [6] = assay: Antiproliferative activity against human MDA-MB-231 cells assessed as decrease in colony formation by crystal violet staining based analysis; type: functional, cell-based; conditions: dose <= 10.0 µM
[7] = molecular target: T2, Serine/threonine-protein kinase PAK 1; assay: Inhibition of PAK1 in human MDA-MB-231 cells at 5 uM incubated for 24 hrs by immunofluorescence based analysis; type: cell-based
[8] = molecular target: T2, Serine/threonine-protein kinase PAK 1; assay: Inhibition of PAK1 in human MDA-MB-231 cells incubated upto 48 hrs by Western blot analysis; type: cell-based
[9] = molecular target: T2, Serine/threonine-protein kinase PAK 1; assay: Inhibition of PAK1 in human MDA-MB-231 cells assessed as decrease in ERK1/2 phosphorylation at Thr202/Tyr204 incubated upto 48 hrs by Western blot analysis; type: cell-based
MDA-MB-231 [10] = assay: Induction of apoptosis in human MDA-MB-231 cells assessed as early apoptotic cells at 2.5 to 10 uM incubated for 12 hrs by Annexin V-FITC/PI staining based flow cytometry (reference value: 1.70 %); type: functional; conditions: dose 2.5-10 µM
MDA-MB-231 [11] = assay: Induction of apoptosis in human MDA-MB-231 cells assessed as late apoptotic cells at 2.5 to 10 uM incubated for 12 hrs by Annexin V-FITC/PI staining based flow cytometry (reference value: 2.46 %); type: functional; conditions: dose 2.5-10 µM
MDA-MB-231 [12] = assay: Induction of apoptosis in human MDA-MB-231 cells assessed as necrotic cells at 2.5 to 10 uM incubated for 12 hrs by Annexin V-FITC/PI staining based flow cytometry (reference value: 1.08 %); type: functional; conditions: dose 2.5-10 µM
MDA-MB-231 [13] = assay: Induction of apoptosis in human MDA-MB-231 cells assessed as viable cells at 2.5 to 10 uM incubated for 24 hrs by Annexin V-FITC/PI staining based flow cytometry (reference value: 94.8 %); type: functional; conditions: dose 2.5-10 µM
MDA-MB-231 [14] = assay: Induction of apoptosis in human MDA-MB-231 cells assessed as late apoptotic cells at 2.5 to 10 uM incubated for 24 hrs by Annexin V-FITC/PI staining based flow cytometry (reference value: 2.46 %); type: functional; conditions: dose 2.5-10 µM
MDA-MB-231 [15] = assay: Induction of apoptosis in human MDA-MB-231 cells assessed as early apoptotic cells at 2.5 to 10 uM incubated for 48 hrs by Annexin V-FITC/PI staining based flow cytometry (reference value: 1.70 %); type: functional; conditions: dose 2.5-10 µM
MDA-MB-231 [16] = assay: Induction of apoptosis in human MDA-MB-231 cells assessed as late apoptotic cells at 2.5 to 10 uM incubated for 48 hrs by Annexin V-FITC/PI staining based flow cytometry (reference value: 2.46 %); type: functional; conditions: dose 2.5-10 µM
MDA-MB-231 [17] = assay: Induction of apoptosis in human MDA-MB-231 cells assessed as necrotic cells at 2.5 to 10 uM incubated for 48 hrs by Annexin V-FITC/PI staining based flow cytometry (reference value: 1.08 %); type: functional; conditions: dose 2.5-10 µM
MDA-MB-231 [18] = assay: Induction of apoptosis in human MDA-MB-231 cells assessed as increase in cleaved caspase-9 level at 2.5 to 10 uM incubated upto 48 hrs by Western blot analysis; type: functional, cell-based; conditions: dose 2.5-10 µM
MDA-MB-231 [19] = assay: Induction of apoptosis in human MDA-MB-231 cells assessed as decrease in Bcl-2 level at 2.5 to 10 uM incubated upto 48 hrs by Western blot analysis; type: functional, cell-based; conditions: dose 2.5-10 µM
MDA-MB-231 [20] = assay: Inhibition of cell proliferation of human MDA-MB-231 cells at 2.5 uM by crystal violet staining based colony formation assay; type: functional
MDA-MB-231 [21] = assay: Inhibition of 3D-spherioid formation of human MDA-MB-231 cells at 2.5 uM by crystal violet staining based colony formation assay; type: functional, cell-based
MDA-MB-231 [22] = assay: Inhibition of cell proliferation of human MDA-MB-231 cells at 2.5 uM by EdU staining based analysis; type: functional
MDA-MB-231 [23] = assay: Inhibition of cell proliferation of human MDA-MB-231 cells assessed as decrease in Ki-67 expression at 2.5 uM incubated for 24 hrs by immunofluorescence based analysis; type: functional
MDA-MB-231 [24] = assay: Inhibition of cell migration in human MDA-MB-231 cells at 2.5 uM incubated for 24 hrs by transwell assay; type: functional, cell-based
MDA-MB-231 [25] = assay: Induction of apoptosis in human MDA-MB-231 cells assessed as late apoptotic cells at 2.5 uM incubated for 12 to 48 hrs by Annexin V-FITC/PI staining based flow cytometry (reference value: 1.48 %); type: functional; conditions: time 12-48 hrs
MDA-MB-231 [26] = assay: Antitumor activity against human MDA-MB-231 cells xenografted in BALB/c mouse assessed as reduction in tumor volume at 20 mg/kg, ip qd for 12 days; type: functional, organism-based; conditions: time 12.0 day
[27] = Toxicity in BALB/c mouse xenografted with human MDA-MB-231 cells assessed as animal growth at 20 mg/kg, ip qd for 12 days; type: organism-based; conditions: in vivo, 288 h, time 12 day
[28] = molecular target: T2, Serine/threonine-protein kinase PAK 1; assay: In vivo inhibition of PAK1 in human MDA-MB-231 cells xenografted in BALB/c mouse at 20 mg/kg, ip qd for 12 days by IHC analysis; type: functional, organism-based; conditions: time 12.0 day
[29] = molecular target: T2, Serine/threonine-protein kinase PAK 1; assay: In vivo inhibition of PAK1 phosphorylation at S144 in human MDA-MB-231 cells xenografted in BALB/c mouse at 20 mg/kg, ip qd for 12 days by Western blot analysis; type: functional, organism-based; conditions: time 12.0 day
MDA-MB-231 [30] = assay: Induction of apoptosis in human MDA-MB-231 cells xenografted in BALB/c mouse assessed as increase in Bax level at 20 mg/kg, ip qd for 12 days by Western blot analysis; type: functional, organism-based; conditions: time 12.0 day
MDA-MB-231 [31] = assay: Induction of apoptosis in human MDA-MB-231 cells xenografted in BALB/c mouse assessed as increase in PARP level at 20 mg/kg, ip qd for 12 days by Western blot analysis; type: functional, organism-based; conditions: time 12.0 day
MDA-MB-231 [32] = assay: Induction of apoptosis in human MDA-MB-231 cells xenografted in BALB/c mouse assessed as increase in E-Cadherin level at 20 mg/kg, ip qd for 12 days by Western blot analysis; type: functional, organism-based; conditions: time 12.0 day
MDA-MB-231 [33] = assay: Induction of apoptosis in human MDA-MB-231 cells xenografted in BALB/c mouse assessed as decrease in ERK1/2 phosphorylation at Thr202/Tyr204 at 20 mg/kg, ip qd for 12 days by Western blot analysis; type: functional, organism-based; conditions: time 12.0 day
MDA-MB-231 [34] = assay: Induction of apoptosis in human MDA-MB-231 cells xenografted in BALB/c mouse assessed as decrease in MMP-2 at 20 mg/kg, ip qd for 12 days by Western blot analysis; type: functional, organism-based; conditions: time 12.0 day

SMILES: Cc1ncsc1-c1ccc([C@H](C)NC(=O)[C@@H]2C[C@@H](O)CN2C(=O)[C@@H](NC(=O)CCc2cn(CCCCCCCn3c(=O)c(-c4ccc(Cl)cc4Cl)cc4cnc(NC5CC5)nc43)nn2)C(C)(C)C)cc1
- Activity [1]: 52.4%
- Kd [2]: 16.2 µM
- Activity [3]: Dose-Dependent Effect
- Activity [4]: inactive
- Activity [5]: inactive
- Activity (MDA-MB-231 [6]): Dose-Dependent Effect
- inhibition [7]: Active
- inhibition [8]: Active
- inhibition [9]: Active
- Activity (MDA-MB-231 [10]): 4.37%
- Activity (MDA-MB-231 [11]): 5.67%
- Activity (MDA-MB-231 [12]): 3.7%
- Activity (MDA-MB-231 [13]): 76.6%
- Activity (MDA-MB-231 [14]): 6.74%
- Activity (MDA-MB-231 [15]): 37.9%
- Activity (MDA-MB-231 [16]): 4.94%
- Activity (MDA-MB-231 [17]): 1.74%
- Activity (MDA-MB-231 [18]): Active
- Activity (MDA-MB-231 [19]): Active
- inhibition (MDA-MB-231 [20]): Active
- inhibition (MDA-MB-231 [21]): Active
- inhibition (MDA-MB-231 [22]): Active
- inhibition (MDA-MB-231 [23]): Active
- inhibition (MDA-MB-231 [24]): Active
- Activity (MDA-MB-231 [25]): 8.21%
- Activity (MDA-MB-231 [26]): Active
- Activity [27]: Non-Toxic
- inhibition [28]: Active
- inhibition [29]: Active
- Activity (MDA-MB-231 [30]): Active
- Activity (MDA-MB-231 [31]): Active
- Activity (MDA-MB-231 [32]): Active
- Activity (MDA-MB-231 [33]): Active
- Activity (MDA-MB-231 [34]): Active
